Laboratory results taken from patent US5118392A, “Separation of trichloroethylene from a butyl alcohol by extractive distillation” (priority 1991, dated 1992).
Read-outs that look alike come from different tables or passages of the source. Values belong to the compound of their own block, whether it stands above or below them.

Key:
[1] = Vapor-liquid equilibrium still, t-butanol-trichloroethylene azeotrope with extractive distillation agent; format: physicochemical; settings: for Relative Volatility: trichloroethylene from t-butanol, Table 10
Text: (§1) The data in Tables 2, 3, 5, 7, 8, 10 and 11 was obtained in a vapor-liquid equilibrium still. In every case, the starting mixture was the trichloroethylene-butanol azeotrope. The relative volatilities are listed for each of the agents.
Seventy grams of the t-butanol-trichloroethylene azeotrope and 30 grams of n-butyl acetate were charged to the vapor-liquid equilibrium still and refluxed for fourteen hours.

[2] = Vapor-liquid equilibrium still, trichloroethylene-n-butanol azeotrope with extractive distillation agent; format: physicochemical
[3] = Vapor-liquid equilibrium still, trichloroethylene-2-butanol azeotrope with extractive distillation agent; format: physicochemical; settings: trichloroethylene from 2-butanol, Table 7
Text: as §1
Seventy grams of the trichloroethylene-2-butanol azeotrope and 30 grams of 2-methyl-1-pentanol were charged to the vapor-liquid equilibrium still and refluxed for two hours.

[4] = Vapor-liquid equilibrium still, trichloroethylene-isobutanol azeotrope with extractive distillation agent; format: physicochemical
Text: as §1
Seventy grams of the trichloroethylene-isobutanol azeotrope and 30 grams of n-octanol were charged to the vapor-liquid equilibrium still and refluxed for five hours.

[5] = Method: A solution comprising 170 grams of trichloroethylene and 30 grams of t-butanol was placed in the stillpot of the 7.3 theoretical plate glass perforated plate rectification column. When refluxing began, an extractive agent comprising n-butyl acetate was pumped into the column at a rate of 15 ml/min. The temperature of the extractive agent as it entered the column was 85° C. After establishing the feed rate of the extractive agent, the heat input to the trichloroethylene-t-butanol in the stillpot was adjusted to give a total reflux rate of 40 ml/min. After two hours of operation, the overhead and bottoms samples were collected and analysed.
[6] = Glass perforated plate rectification column (7.3 theoretical plates), trichloroethylene / isobutanol; format: physicochemical
Text: The overhead analysis was 97.7% trichloroethylene, 2.3% isobutanol and the bottoms analysis was 84.8% trichloroethylene, 15.2% isobutanol. This gives an average relative volatility of 1.31 for each theoretical plate.

[7] = trichloroethylene from n-butanol, Table 2
[8] = trichloroethylene from isobutanol, Table 5
[9] = Example 7, refluxed fourteen hours
[10] = bottoms, 2 hrs, listed as n-butyl acetate
[11] = overhead, 2 hrs, listed as n-butyl acetate

Relative Volatility [1]: 1.85
Compound: 2-Methoxyethyl ether acetate

Compound: CC(=O)O[C@@H]1C[C@H]2CC[C@]1(C)C2(C)C (racemic) [Isobornyl acetate]
Relative Volatility [2, 7]: 1.25

Compound: COCC(C)OC(C)=O (centres unmarked) [1-Methoxy-2-propanol acetate]
Relative Volatility [2]: 1.5
Relative Volatility [1]: 1.65

Compound: COCC(C)O (centres unmarked) [1-Methoxy-2-propanol]
Relative Volatility [1]: 1.65

Compound: CCCCCCCCO [1-Octanol]
Relative Volatility [3]: 1.5

Compound: CC(=O)CC(C)=O [2,4-Pentanedione]
Relative Volatility [1]: 1.4

Relative Volatility [2, 7]: 1.35
Compound: CC(C)CC(=O)CC(C)C [2,6-Dimethyl-4-heptanone]

Relative Volatility [3]: 1.85
Compound: CCC(CC)CO [2-Ethyl butanol]

Relative Volatility [3]: 1.55
Compound: CCCCC(CC)CO (centres unmarked) [2-Ethyl-1-hexanol]

Compound: CCCCCC(C)=O [2-Heptanone]
Relative Volatility [2, 7]: 1.7

Compound: CCCC(C)CO (centres unmarked) [2-Methyl pentanol]
Relative Volatility [2, 7]: 3.5

Compound: CCCCCCC(C)O (centres unmarked) [2-Octanol]
Relative Volatility [4, 8]: 2.7

Relative Volatility [2, 7]: 1.4
Compound: CCCCCCC(C)=O [2-Octanone]

Compound: CCCC(C)=O [2-Pentanone]
Relative Volatility [1]: 1.9

Relative Volatility [1]: 1.35
Compound: CCCCC(=O)CC [3-Heptanone]

Relative Volatility [1]: 1.55
Compound: CCCC(=O)CC [3-Hexanone]

Relative Volatility [3]: 1.35
Compound: CCC(C)(O)CC [3-Methyl-3-pentanol]

Relative Volatility [2, 7]: 1.35
Compound: CCCCCC(=O)CC [3-Octanone]

Relative Volatility [3]: 1.65
Compound: OCCCc1ccccc1 [3-Phenyl-1-propanol]

Compound: CC(C)CC(C)O (centres unmarked) [4-Methyl-2-pentanol]
Relative Volatility [4, 8]: 2.7

Compound: CC(=O)CC(C)C [4-Methyl-2-pentanone]
Relative Volatility [1]: 1.5

Compound: CC(=O)CCC(C)C [5-Methyl-2-hexanone]
Relative Volatility [2, 7]: 1.6
Relative Volatility [1]: 1.3

Compound: CC(=O)CCC(C)=O [Acetonylacetone]
Relative Volatility [2, 7]: 2.6

Relative Volatility [2, 7]: 1.6
Compound: CC(=O)c1ccccc1 [Acetophenone]

Compound: OCc1ccccc1 [Benzyl alcohol]
Relative Volatility [2, 7]: 3.5
Relative Volatility [4, 8]: 2.0

Compound: OC1CCCCC1 [Cyclohexanol]
Relative Volatility [2]: 3.5
Relative Volatility [4, 8]: 2.4

Compound: CC(=O)CC(C)(C)O [Diacetone alcohol]
Relative Volatility [4, 8]: 1.3
Relative Volatility [3]: 1.45

Relative Volatility [2, 7]: 1.4
Relative Volatility [4, 8]: 1.6
Relative Volatility [3]: 1.35
Compound: CC(C)CC(O)CC(C)C [Diisobutyl carbinol]

Relative Volatility [2, 7]: 1.4
Relative Volatility [1]: 1.4
Compound: CC(C)CC(=O)CC(C)C [Diisobutyl ketone]

Compound: CN(C)C=O [Dimethylformamide]
Relative Volatility [2]: 4.5

Compound: CCCC(=O)OCC [Ethyl butyrate]
Relative Volatility [1]: 1.5

Compound: CCOCCC(=O)OCC [Ethyl ethoxy propionate]
Relative Volatility [1]: 1.45

Compound: CCOC(=O)CC(C)C [Ethyl isovalerate]
Relative Volatility [2, 7]: 1.45
Relative Volatility [1]: 1.5

Relative Volatility [1]: 2.4
Compound: CCOC(=O)CC [Ethyl propionate]

Compound: CCCCC(=O)OCC [Ethyl valerate]
Relative Volatility [2, 7]: 3.0
Relative Volatility [1]: 1.65

Relative Volatility [4, 8]: 1.95
Relative Volatility [3]: 1.55
Compound: CCCCCCCO [Heptyl alcohol]

Relative Volatility [1]: 1.4
Compound: CCCCCCOC(C)=O [Hexyl acetate]

Compound: CCCCCCO [Hexyl alcohol]
Relative Volatility [3]: 2.6

Compound: CC(=O)OCCC(C)C [Isoamyl acetate]
Relative Volatility [1]: 1.5

Relative Volatility [4, 8]: 1.9
Compound: CC(C)CCO [Isoamyl alcohol]

Compound: CC(=O)OCC(C)C [Isobutyl acetate]
Relative Volatility [1]: 1.4

Relative Volatility [1]: 1.65
Compound: CCCC(=O)OCC(C)C [Isobutyl butyrate]

Compound: CC(C)COC(=O)C(C)C [Isobutyl isobutyrate]
Relative Volatility [2]: 1.5
Relative Volatility [1]: 1.45

Compound: CC(C)CCCCCCCO [Isodecyl alcohol]
Relative Volatility [2]: 3.6

Compound: CC(C)CCCO [Isohexyl alcohol]
Relative Volatility [4, 8]: 2.6

Relative Volatility [3]: 1.35
Compound: CC(C)CCCCCCO [Isononyl alcohol]

Compound: CC(C)CCCCCO [Isooctanol]
Relative Volatility [4, 8]: 1.6

Compound: CC(C)CCCCCO [Isooctyl alcohol]
Relative Volatility [3]: 1.7

Compound: CC1=CC(=O)CC(C)(C)C1 [Isophorone]
Relative Volatility [2, 7]: 1.45
Relative Volatility [4, 8]: 1.6

Compound: CC(=O)CCC(C)C [Methyl isoamyl ketone]
Relative Volatility [1]: 1.4

Compound: CC(C)CC(C)O (centres unmarked) [Methyl isobutyl carbinol]
Relative Volatility [2, 7]: 2.4

Compound: CC(=O)CC(C)C [Methyl isobutyl ketone]
Relative Volatility [1]: 1.3

Compound: CC(=O)C(C)C [Methyl isopropyl ketone]
Relative Volatility [1]: 1.3

Relative Volatility [4, 8]: 3.8
Compound: CCCCCCCCCO [Nonyl alcohol]

Relative Volatility [2, 7]: 2.5
Relative Volatility [4, 8]: 1.55
Compound: OCCc1ccccc1 [Phenethyl alcohol]

Compound: O=S1(=O)CCCC1 [Sulfolane]
Relative Volatility [2, 7]: 2.5

Compound: OCC1CCCO1 (centres unmarked) [Tetrahydrofurfuryl alcohol]
Relative Volatility [2]: 2.2
Relative Volatility [4, 8]: 2.4
Relative Volatility [3]: 1.65

Compound: CCCCCOC(C)=O [n-Amyl acetate]
Relative Volatility [1]: 1.7

Compound: CCCCOC(C)=O [n-Butyl acetate]
liquid composition, t-butanol [1, 9]: 31.7%
liquid composition, trichloroethylene [1, 9]: 68.3%
vapor composition, t-butanol [1, 9]: 55.5%
vapor composition, trichloroethylene [1, 9]: 44.5%
relative volatility of t-butanol to trichloroethylene ([1]; Example 7: 70 g azeotrope, 30 g agent, refluxed fourteen hours): 1.7
Relative Volatility [1]: 1.7
Relative Volatility (per theoretical plate) ([5]; 1 hr): 1.63
Relative Volatility (average, t-butanol to trichloroethylene, per theoretical plate) ([5]; 2 hrs): 2.15
Weight % C2 H Cl3 ([5]; bottoms, 1 hr): 6.1%
Weight % t-Butanol ([5]; bottoms, 1 hr): 93.9%
Weight % C2 H Cl3 ([5]; bottoms, 2 hrs): 4.1%
Weight % t-Butanol ([5]; bottoms, 2 hrs): 95.9%
Weight % C2 H Cl3 [5, 10]: 95.9%
Weight % t-Butanol [5, 10]: 4.1%
Weight % C2 H Cl3 ([5]; overhead, 1 hr): 70.3%
Weight % t-Butanol ([5]; overhead, 1 hr): 29.7%
Weight % C2 H Cl3 ([5]; overhead, 2 hrs): 92.2%
Weight % t-Butanol ([5]; overhead, 2 hrs): 7.8%
Weight % C2 H Cl3 [5, 11]: 7.8%
Weight % t-Butanol [5, 11]: 92.2%

Relative Volatility [2, 7]: 2.4
Relative Volatility [4, 8]: 3.9
Compound: CCCCCCCCCCO [n-Decanol]

Compound: CCCCCCO [n-Hexyl alcohol]
Relative Volatility [2, 7]: 3.1

Relative Volatility [2, 7]: 2.5
Compound: CCCCCCCCCO [n-Nonyl alcohol]

Compound: CCCCCCCCO [n-Octanol]
Relative Volatility [2, 7]: 2.3
liquid composition, isobutanol ([4]; Example 3, refluxed five hours): 6.1%
liquid composition, trichloroethylene ([4]; Example 3, refluxed five hours): 93.9%
vapor composition, isobutanol ([4]; Example 3, refluxed five hours): 4.6%
vapor composition, trichloroethylene ([4]; Example 3, refluxed five hours): 95.4%
Relative Volatility ([4]; Example 3: 70 g azeotrope, 30 g agent, refluxed five hours): 1.3
Relative Volatility [4, 8]: 1.3
Relative Volatility (per theoretical plate) ([6]; 1 hr): 1.275
Relative Volatility (average, per theoretical plate) ([6]; 2 hrs): 1.31
Weight % C2 H Cl3 ([6]; bottoms, 1 hr): 84.0%
Weight % Isobutanol ([6]; bottoms, 1 hr): 16.0%
Weight % C2 H Cl3 ([6]; bottoms, 2 hrs): 84.8%
Weight % Isobutanol ([6]; bottoms, 2 hrs): 15.2%
Weight % C2 H Cl3 ([6]; overhead, 1 hr): 96.9%
Weight % Isobutanol ([6]; overhead, 1 hr): 3.1%
Weight % C2 H Cl3 ([6]; overhead, 2 hrs): 97.7%
Weight % Isobutanol ([6]; overhead, 2 hrs): 2.3%

Compound: CCCOC(C)=O [n-Propyl acetate]
Relative Volatility [1]: 2.9
